Experimental data published in the supplement of paper PMC7840683.
Counter-ions that a name gives are not always drawn. ± gives the standard deviation of the averaged measurements.

System: HepaRG
Assay: LDH release cytotoxicity, % of total lysis control; higher = more cytotoxic
Conditions: 48 h
Procedure, shortened: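 Eight-point half-log series of test chemicals, the highest at 100 µM, were given in duplicate for 48 h to single-lot HepaRG cells on collagen I-coated 96-well plates in serum-free induction medium with 0.5% DMSO. A Tecan Safire read resorufin fluorescence from CytoTox-ONE as a measure of LDH in 50 µL spent medium, with 0.1% Triton X in total lysis wells. Percent cytotoxicity was normalized to on-plate vehicle and total lysis controls and averaged over the duplicates.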

Compound	LDH release cytotoxicity (0.03162 µM) [%]	LDH release cytotoxicity (0.1 µM) [%]	LDH release cytotoxicity (0.3162278 µM) [%]	LDH release cytotoxicity (1 µM) [%]	LDH release cytotoxicity (3.16228 µM) [%]	LDH release cytotoxicity (10 µM) [%]	LDH release cytotoxicity (31.6228 µM) [%]	LDH release cytotoxicity (100 µM) [%]	other results
O=C1OC(=O)C2C3C=CC(C3)C12 (configuration not stated) [2-Norbornene-5,6-dicarboxylic anhydride]	-1.12 ± 0.28	-0.887 ± 0.62	-1.06 ± 0.25	-1.3 ± 0.092	-0.802 ± 0.41	-1.42 ± 0.42	-0.266 ± 0.16	1.32 ± 0.12	
OCCOc1ccccc1 [2-Phenoxyethanol]	-0.138 ± 0.14	-0.772 ± 0.68	-1.12 ± 0.39	-1.13 ± 0.53	-1.12 ± 0.78	-1.27 ± 0.29	-0.22 ± 0.34	0.632 ± 1.1	
Oc1ccccc1-c1ccccc1 [2-Phenylphenol]									LDH release cytotoxicity (0.0327296 µM): -1.34 ± 0.032%; LDH release cytotoxicity (0.1035 µM): -1.96 ± 0.059%; LDH release cytotoxicity (0.327296 µM): -0.0202 ± 0.57%; LDH release cytotoxicity (1.035 µM): -0.704 ± 0.57%; LDH release cytotoxicity (3.27296 µM): -1.21 ± 0.68%; LDH release cytotoxicity (10.35 µM): 0.0213 ± 0.73%; LDH release cytotoxicity (32.729574 µM): -0.237 ± 0.41%; LDH release cytotoxicity (103.5 µM): 0.858 ± 0.56%
Cc1ccc(C(C)(C)C)c(O)c1 [2-Tert-Butyl-5-methylphenol]	-2.27 ± 0.2	-3.53 ± 0.25	-3.17 ± 1.2	-3.25 ± 0.28	-3.05 ± 0.58	-1.24 ± 0.75	-1.73 ± 0.49	1.45 ± 1.3	
CCOCCOCCOCCO [2-[2-(2-Ethoxyethoxy)ethoxy]ethanol]	-2.06 ± 0.3	-1.83 ± 0.41	-2.87 ± 0.13	-2.53 ± 0.46	-2.5 ± 0.72	-1.81 ± 0.26	-1.33 ± 0.37	0.397 ± 0.68	
CCc1ccc(O)c(C(C)(C)C)c1 [2-tert-Butyl-4-ethylphenol]	-1.09 ± 0.39	-1.23 ± 0.81	-1.36 ± 0.88	-2.09 ± 0.78	-0.936 ± 0.3	0.529 ± 0.44	-0.602 ± 0.34	0.703 ± 0.44	
COc1ccc(O)c(C(C)(C)C)c1 [2-tert-Butyl-4-methoxyphenol]	-1.55 ± 0.4	-1.18 ± 0.12	0.0233 ± 0.91	0.0291 ± 1.1	0.0384 ± 1.3	0.94 ± 1.4	1.15 ± 1.3	2.22 ± 1.8	
CC(C)(C)c1ccccc1O [2-tert-Butylphenol]	-1.05 ± 0.97	-1.24 ± 0.37	-1.22 ± 0.3	-1.31 ± 1.3	-0.599 ± 0.044	-0.21 ± 0.92	-0.521 ± 0.091	0.121 ± 1	
C/C=C/C=C/C(=O)O [2E,4E-Hexadienoic acid]	-0.745 ± 0.091	-1.89 ± 0.18	-1.82 ± 0.54	-1.07 ± 0.45	-1.03 ± 0.12	-1.19 ± 0.023	-0.323 ± 0.42	0.653 ± 1.2	
Cc1cn(C2CC(N=[N+]=[N-])C(CO)O2)c(=O)nc1O (configuration not stated) [3'-Azido-3'-deoxythymidine]	-0.42 ± 0.53	-0.0584 ± 0.55	-1.1 ± 0.81	-0.757 ± 0.25	-0.57 ± 0.61	-0.541 ± 0.24	-0.814 ± 0.1	-0.709 ± 0.47	
CC(C)(c1cc(Br)c(O)c(Br)c1)c1cc(Br)c(O)c(Br)c1 [3,3',5,5'-Tetrabromobisphenol A]	-1.12 ± 0.1	-1.08 ± 0.92	-0.948 ± 1.4	-1.1 ± 0.047	-0.766 ± 0.24	-0.155 ± 0.087	0.933 ± 0.068	3.36 ± 1.1	
COc1cc(-c2ccc(N)c(OC)c2)ccc1N [3,3'-Dimethoxybenzidine dihydrochloride]	-1.44 ± 0.28	-1.17 ± 0.44	-1.43 ± 0.26	-2.08 ± 0.059	-1.15 ± 0.23	-0.317 ± 0.23	0.438 ± 1	3.4 ± 0.6	
COc1cc(-c2ccc(N)c(OC)c2)ccc1N [3,3'-Dimethoxybenzidine]	-2.67 ± 0.52	-2.03 ± 1.2	-2.61 ± 0.54	-2.72 ± 1.3	-1.97 ± 0.08	-2.38 ± 0.65	-2.12 ± 0.23	-0.532 ± 0.63	
Cc1cc(-c2ccc(N)c(C)c2)ccc1N [3,3'-Dimethylbenzidine]	-0.774 ± 1.1	-1.43 ± 0.33	-1.35 ± 0.3	-1.27 ± 0.083	-0.397 ± 0.66	-0.218 ± 0.26	2.22 ± 0.32	5.88 ± 1.2	
Cc1ccc(N)c(N)c1 [3,4-Diaminotoluene]									LDH release cytotoxicity (0.0317809 µM): -0.96 ± 0.44%; LDH release cytotoxicity (0.1005 µM): -0.403 ± 1.1%; LDH release cytotoxicity (0.317809 µM): -1.27 ± 0.55%; LDH release cytotoxicity (1.005 µM): -0.97 ± 1%; LDH release cytotoxicity (3.17809 µM): -0.641 ± 0.42%; LDH release cytotoxicity (10.05 µM): -0.448 ± 0.68%; LDH release cytotoxicity (31.7809 µM): -0.415 ± 1.9%; LDH release cytotoxicity (100.5 µM): 0.704 ± 1.1%
O=[N+]([O-])c1ccc(Cl)c(Cl)c1 [3,4-Dichloronitrobenzene]	-2.51 ± 0.31	-2.5 ± 0.12	-2.72 ± 0.62	-3.32 ± 0.099	-2.26 ± 0.096	-2.3 ± 0.049	-1.86 ± 0.037	-0.0607 ± 0.49	
NC(Cc1cc(I)c(Oc2ccc(O)c(I)c2)c(I)c1)C(=O)O (configuration not stated) [3,5,3'-Triiodothyronine]		-3.18 ± 1.4		-4.06 ± 0.7	-3.84 ± 0.24	-3.581 ± 0.016	-2.69 ± 1.4	0.489 ± 0.55	LDH release cytotoxicity (0.031623 µM): -1.22 ± 1.4%; LDH release cytotoxicity (0.316228 µM): -4.73 ± 0.3%
CC(C)=CCCC(C)=CC=O [3,7-Dimethyl-2,6-octadienal]	-1.99 ± 0.53	-2.58 ± 0.96	-1.66 ± 0.9	-2.25 ± 1.7	-0.875 ± 0.71	-0.825 ± 1.8	-0.501 ± 0.3	0.215 ± 0.38	
OCCCBr [3-Bromo-1-propanol]	0.25 ± 1.2	-0.845 ± 0.1	-1.144 ± 0.0048	-0.314 ± 0.33	-0.692 ± 0.86	-0.0559 ± 0.79	-0.26 ± 0.065	9.22 ± 1.3	
